We go through 1 compound from patent publication US20220305093A1, “NK-LYSIN PEPTIDE COMPOSITIONS AND METHODS FOR THEIR USE AS ANTIMICROBIAL/ANTIVIRAL AGENTS” (priority 2021, published 2022).

Experiment [1] has as its system Salmonella typhimurium (ATCC 14028). Kind of experiment: Leakage of intracellular contents (DNA/RNA release, OD 260 nm). The following applies: 15 min. Type of experiment: cell-based. How it is done: The protocol of Carson et al. (Antimicrob Agents Chemother. 2002 June; 46(60:1914-20) was used with some changes to perform the assay for determining the loss of DNA/RNA. In short, 50 μl of bacteria was combined with the same volume of NK-lysin peptides at 2×MIC and then incubated at room temperature. Samples were harvested at 15, 30 and 60 minutes, diluted 1:10 and then filtered across 0.22 μm pores (Merck; Tullagreen, Ireland). The measurement of the O.D 260 nm of the filtrates was carried out over NanoDrop plate (Greiner Bio-One GmbH; Frickenhausen, Germany). The results were presented as a ratio to the original OD260 nm. 16S rRNA Amplification Two universal primer sets 341F and 534 R were used to amplify 500 bp of 16s rRNA gene of Salmonella typhimurium. The forward primer had the following sequence: 5′-CCT ACG GGA GGC AGC AG-3′ (SEQ ID NO:04), whereas the reverse primer had the following: 5′-ATT ACC GCG GCT GCT GGC-3′ (SEQ ID NO:05). PCR amplification reactions were carried out in 50 μl of overall volume with a reaction mixture comprising 50 ng template DNA, 10 pmol each primer, 0.25 U Taq DNA polymerase, 10 mM Tris-HCl (pH.9.0), […] dNTPs mix, 30 mM KCl, 1.5 mM MgCl2 in sterile nuclease-free water. […]

For experiment [2], the system named is Klebsiella pneumoniae (patient isolate). Kind of experiment: microbe, parasite or virus in culture. The following applies: patient isolate. How it is done:
(§1) The minimum inhibitory concentration (MIC) is defined as the lowest concentration of an antimicrobial ingredient or agent that is bacteriostatic (prevents the visible growth of bacteria).
(§2) Mueller Hinton broth (MHB) comprising 0.01% v/v acetic acid (Sigma Aldrich; St Louis, Mo.) and 0.2% w/v bovine serum albumin (Sigma Aldrich). Equal concentrations of bacteria were plated in wells of standard tissue culture microplates at a density of 0.5×10^8 CFU ml^−1 in MHB per well. Treatments were equivalent volumes (50 μl) of NK-lysin peptides in concentrations of 0 to 150 μg/ml, or no NK-lysin peptides for control wells. The treated plates were incubated at […] and optical densities were determined for each well at 0 minutes, 1, 2 and 3 hours and after an overnight incubation.

Experiment [3] relates to Escherichia coli (ATCC 11775). Briefly: microbe, parasite or virus in culture. The following applies: ATCC 11775. As to the method: as §1, §2
Experiment [4] has as its system Shigella sonnei (ATCC 25931). Briefly: microbe, parasite or virus in culture. The following applies: Sh. sonnei ATCC 25931. As to the method: as §1, §2
Experiment [5] relates to Salmonella typhimurium (ATCC 14028). Kind of experiment: microbe, parasite or virus in culture. The following applies: S.typhimrium ATCC 14028. How it is done: as §1, §2
Experiment [6] has as its system Streptococcus pyogenes (ATCC 19615). Kind of experiment: microbe, parasite or virus in culture. The following applies: ATCC 19615. As to the method:
as §1, §2

In experiment [7] the test system is Streptococcus mutans (isolate). Kind of experiment: microbe, parasite or virus in culture. The following applies: isolate. How it is done:
as §1, §2

For experiment [8], the system named is Pseudomonas aeruginosa (ATCC 9027). Kind of experiment: microbe, parasite or virus in culture. The following applies: ATCC 9027. As to the method:
as §1, §2

The subject of experiment [9] is Klebsiella oxytoca (ATCC 49131). Kind of experiment: microbe, parasite or virus in culture. The following applies: ATCC 49131. As to the method:
as §1, §2

A further experiment concerns Rotavirus (strain SA-11). Type of experiment: cell-based. How it is done: Rotavirus (strain SA-11) was activated with 10 μg/mL trypsin before propagation on MA-104 cells derived from kidney cells of African […] monkey. MA-104 cells were cultivated in tissue culture flasks in the presence of less than 5% CO2 at 37° C. in Dulbecco's Minimal Essential Medium (DMEM) (Sigma-Aldrich) The DMEM included 1% antibiotic antimycotic solution and 10% heat inactivated fetal bovine serum (A5955, Sigma-Aldrich). Centrifugation of rotavirus was performed at 300×g for 5 mins in order to purify by removal of cell debris. The supernatant was utilized as a stock suspension of virus after filtration through 0.2 μm membrane. The stock virus contained 10^6-10^7 TCID50 per mL and was stored at −80° C. for future use.
In order to activate infectivity, rotavirus was placed in a solution of 10 μg/mL trypsin at 37° C. for 30 min. A 100 μl aliquot of the activated rotavirus sa-11 was mixed with and equal volume of 80 μg/ml NK-lysin peptides for a final rotavirus concentration of 1×10^6 TCID50/ml. The rotavirus and NK-lysin peptide mixture was first incubated for at 37° C. for 1 hour. Serial dilutions of rotavirus and rotavirus+peptide mixtures were prepared. Aliquots 100 μl of the 10-fold serial dilutions were then added to 96-well tissue culture plates comprising monolayers of MA-104 cells at a density of approximately 5.0×10^4 cells per well. Eight wells were used for each sample to make sure sufficient assay precision was achieved. The microplates were incubated for 5 days at 37° C. under 5% CO2 atmosphere. During the 5-day incubation, cells were monitored daily under a microscope to check for a cytopathic effect (CPE). A tissue culture infectious dose (TCID) was the infectious dose/mL of tissue culture equal to 50 percent of wells showing CPE at a specific dilution and was expressed as the TCID50 for that dilution. The highest dilutions in which 50% or higher wells were read as the TCID50.

Where [10] appears, read: 80 μg/ml peptide, Rotavirus (SA-11).

Structures are written as SMILES. ≈ marks a conversion by molar mass, not a printed value. Residues, ends and D or L forms follow the SMILES beside them.

In the case of `CC[C@H](C)[C@H](NC(=O)[C@H](C)NC(=O)[C@H](CC(=O)O)NC(=O)[C@H](CCC(=O)O)NC(=O)[C@H](CC(=O)O)NC(=O)[C@@H]1CCCN1)C(=O)N[C@@H](CC(N)=O)C(=O)N[C@@H](CC(N)=O)C(=O)N[C@@H](C)C(=O)N[C@@H](CC(C)C)C(=O)N[C@@H](CC(N)=O)C(=O)N[C@@H](CCCCN)C(=O)N[C@H](C(=O)N[C@@H](CS)C(=O)N[C@@H](CO)C(=O)N[C@H](C(=O)NCC(=O)N[C@@H](CCCNC(=N)N)C(=O)N[C@@H](CCCNC(=N)N)C(=O)N[C@@H](CCC(N)=O)C(=O)N[C@@H](CCCNC(=N)N)C(=O)N[C@@H](CO)C(=O)N[C@H](C(=O)N[C@@H](CS)C(=O)N[C@@H](CCCCN)C(=O)N[C@@H](CCC(N)=O)C(=O)N[C@@H](CC(C)C)C(=O)N[C@@H](CC(C)C)C(=O)N[C@@H](CCCCN)C(=O)N[C@@H](CCCCN)C(=O)O)[C@@H](C)CC)[C@@H](C)O)C(C)C` [Chicken NK-lysin] (H-PDEDAINNALNKVCSTGRRQRSICKQLLKK-OH; N-terminus and C-terminus assumed), the “release of DNA/RNA (OD 260 nm), words” value in [1] is “higher activity”. Moreover, the MBC in [2] turned out to be 25 ± 0.010 µg/mL (≈ 7.35 µM); in experiment [3], 25 ± 0.010 µg/mL (≈ 7.35 µM); in [5] it was 30 ± 0.10 µg/mL (≈ 8.82 µM); in experiment [6], 25 ± 0.010 µg/mL (≈ 7.35 µM); in [7], 15 ± 0.00 µg/mL (≈ 4.41 µM); in experiment [8] it was 25 ± 0.013 µg/mL (≈ 7.35 µM). The same compound showed an MBC in [9] of 25 ± 0.10 µg/mL (≈ 7.35 µM). Besides, the MIC in experiment [2] was determined as 15 ± 0.030 µg/mL (≈ 4.41 µM); in experiment [3], 15 ± 0.012 µg/mL (≈ 4.41 µM); in experiment [4] it was 15 ± 0.033 µg/mL (≈ 4.41 µM); in experiment [5], 15 ± 0.098 µg/mL (≈ 4.41 µM); in [6], 15 ± 0.00 µg/mL (≈ 4.41 µM); in experiment [7], 15 ± 0.00 µg/mL (≈ 4.41 µM). The values for the MIC in experiment [8] and in experiment [9] were 15 ± 0.012 µg/mL (≈ 4.41 µM) and 15 ± 0.015 µg/mL (≈ 4.41 µM), respectively. Also, the Log10TCID50/ml in the experiment with Rotavirus (strain SA-11) (setting [10]) is reported as 5.61. Moreover, the TCID50/ml in the experiment with Rotavirus (strain SA-11) (setting [10]) is given as 4.11 × 10^5 TCID50/ml. Moreover, in the experiment with Rotavirus (strain SA-11) (80 μg/ml peptide, versus initial titre), the “% reduction” value is 79%. In the experiment on Rotavirus (strain SA-11) (Rotavirus (strain SA-11)), the “inhibition of infection / infectivity” value turned out to be 80%.
